# Test results from ChEMBL document CHEMBL1201862, “PubChem BioAssay data set” (2004).
#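 Values below derive from 48-hour exposures of cells grown in 96-well plates, with endpoints linearly interpolated between the two concentrations bracketing the appropriate inhibition level. At the GI50, growth is halved.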 Calls of active or inactive are those of the source. No stated cut-off is given here; in the data, active = GI50 up to about 1.1 µM and inactive = higher.
# Tests used:
# Assay in all cases: DTP human tumour cell line panel, 48 h
# [1] = system: A549
# [2] = system: HL-60
# [3] = system: HOP-62
# [4] = system: HOP-92
# [5] = system: KM12
# [6] = system: M14
# [7] = system: MDA-MB-435
# [8] = system: MDA-N
# [9] = system: NCI-H460
# [10] = system: NCI-H522
# [11] = system: OVCAR-3
# [12] = system: PC-3
# [13] = system: RPMI-8226
# [14] = system: RXF 393
# [15] = system: SK-OV-3
# [16] = system: SN12C
# [17] = system: U-251
# [18] = system: UO-31
# [19] = system: SF-539
SMILES,GI50 [1],GI50 [2],GI50 [3],GI50 [4],GI50 [5],GI50 [6],GI50 [7],GI50 [8],GI50 [9],GI50 [10],GI50 [11],GI50 [12],GI50 [13],GI50 [14],GI50 [15],GI50 [16],GI50 [17],GI50 [18],GI50 [19]
COc1cccc(C2CC(C)(O)Oc3cc4c(cc32)OCO4)c1 (stereo unspecified),31 µM (inactive),17.2 µM (inactive),21.1 µM (inactive),26.7 µM (inactive),11.2 µM (inactive),12.5 µM (inactive),3.3 µM (inactive),2.82 µM (inactive),16.1 µM (inactive),7.21 µM (inactive),19.4 µM (inactive),25.1 µM (inactive),16.1 µM (inactive),28 µM (inactive),16.9 µM (inactive),27.3 µM (inactive),23.4 µM (inactive),23.3 µM (inactive),–
CC(C)OC(=O)c1ccc(NCC2=CC(=O)C=CC2=O)cc1Cl,31.9 µM (inactive),0.904 µM (active),32.5 µM (inactive),4.89 µM (inactive),13.5 µM (inactive),27.8 µM (inactive),9.44 µM (inactive),8.39 µM (inactive),19.2 µM (inactive),1.02 µM (active),10.4 µM (inactive),8.3 µM (inactive),–,17.1 µM (inactive),31.4 µM (inactive),16.1 µM (inactive),16.9 µM (inactive),3.29 µM (inactive),12 µM (inactive)
Cc1cc2c(O)c(c1)CN(CC(=O)O)Cc1cc(C)cc(c1O)CN(CC(=O)O)Cc1cc(C)cc(c1O)CN(CC(=O)O)C2,> 100 µM (inactive),–,> 100 µM (inactive),64.4 µM (inactive),> 100 µM (inactive),> 100 µM (inactive),> 100 µM (inactive),> 100 µM (inactive),> 100 µM (inactive),> 100 µM (inactive),> 100 µM (inactive),> 100 µM (inactive),> 100 µM (inactive),> 100 µM (inactive),> 100 µM (inactive),> 100 µM (inactive),> 100 µM (inactive),> 100 µM (inactive),> 100 µM (inactive)
[N-]=[N+]=CC(=O)C1CCCN1C(=O)c1ccccc1 (stereo unspecified),> 10 µM (inactive),> 10 µM (inactive),> 10 µM (inactive),> 10 µM (inactive),> 10 µM (inactive),> 10 µM (inactive),> 10 µM (inactive),> 10 µM (inactive),> 10 µM (inactive),–,> 10 µM (inactive),> 10 µM (inactive),> 10 µM (inactive),> 10 µM (inactive),> 10 µM (inactive),> 10 µM (inactive),> 10 µM (inactive),> 10 µM (inactive),> 10 µM (inactive)
O=C1NN(Cc2ccccc2)C(=O)N2CCC[C@@H]12,> 100 µM (inactive),> 100 µM (inactive),> 100 µM (inactive),> 100 µM (inactive),> 100 µM (inactive),> 100 µM (inactive),> 100 µM (inactive),> 100 µM (inactive),> 100 µM (inactive),–,> 100 µM (inactive),> 100 µM (inactive),–,> 100 µM (inactive),> 100 µM (inactive),> 100 µM (inactive),–,–,> 100 µM (inactive)
COC(=O)C([C@H]1CC[C@H](OCc2ccccc2)[C@@]1(O)COCc1ccccc1)C(C)(O)CCc1ccccc1 (stereo partly specified),6.71 µM (inactive),–,15.2 µM (inactive),–,3.32 µM (inactive),10.6 µM (inactive),14.4 µM (inactive),13.1 µM (inactive),–,8.07 µM (inactive),12.7 µM (inactive),4.13 µM (inactive),9.89 µM (inactive),10.4 µM (inactive),27.1 µM (inactive),5.13 µM (inactive),11.6 µM (inactive),10.7 µM (inactive),15.4 µM (inactive)
CCOC(=O)N1c2c(c3ccccc3n2C(=O)OCC)C(=O)C(OC)N1C(=O)OCC (stereo unspecified),32.7 µM (inactive),17.2 µM (inactive),22 µM (inactive),31.3 µM (inactive),17.9 µM (inactive),38.4 µM (inactive),32.1 µM (inactive),33.2 µM (inactive),36.1 µM (inactive),13.3 µM (inactive),30.2 µM (inactive),21.6 µM (inactive),23.9 µM (inactive),–,28.4 µM (inactive),28.8 µM (inactive),27.1 µM (inactive),33.7 µM (inactive),24.6 µM (inactive)
CC1(C)CC[C@]2(C(=O)O)CC[C@]3(C)C(=CC[C@@H]4[C@@]5(C)CC[C@H](OC6OC(CO)C(O)C(O)C6OC6OC(CO)C(O)C(O)C6O)C(C)(C)[C@@H]5CC[C@]43C)[C@@H]2C1 (stereo partly specified),18.3 µM (inactive),21.9 µM (inactive),17.8 µM (inactive),17.6 µM (inactive),15.5 µM (inactive),16.2 µM (inactive),20 µM (inactive),19.6 µM (inactive),21 µM (inactive),20.6 µM (inactive),15.7 µM (inactive),17 µM (inactive),23.2 µM (inactive),19.1 µM (inactive),17.8 µM (inactive),18.2 µM (inactive),2.38 µM (inactive),20.6 µM (inactive),–
O=C1CNc2cc(N3CCN(c4cccc(C(F)(F)F)c4)CC3)ccc2N1,24.7 µM (inactive),19.9 µM (inactive),> 100 µM (inactive),> 100 µM (inactive),32.9 µM (inactive),18 µM (inactive),95.5 µM (inactive),84.5 µM (inactive),53 µM (inactive),13.9 µM (inactive),27.5 µM (inactive),44.4 µM (inactive),31.7 µM (inactive),–,> 100 µM (inactive),> 100 µM (inactive),31 µM (inactive),24.7 µM (inactive),57.3 µM (inactive)
COC(CN(C)C(=S)Nc1cccc2ccccc12)OC,> 10 µM (inactive),> 10 µM (inactive),> 10 µM (inactive),–,> 10 µM (inactive),> 10 µM (inactive),> 10 µM (inactive),> 10 µM (inactive),> 10 µM (inactive),> 10 µM (inactive),> 10 µM (inactive),> 10 µM (inactive),> 10 µM (inactive),> 10 µM (inactive),> 10 µM (inactive),> 10 µM (inactive),> 10 µM (inactive),> 10 µM (inactive),> 10 µM (inactive)
CCOC(=O)c1cnc2oc3ccc(O)cc3c2c1C,> 100 µM (inactive),> 100 µM (inactive),–,> 100 µM (inactive),–,> 100 µM (inactive),> 100 µM (inactive),> 100 µM (inactive),> 100 µM (inactive),–,33.9 µM (inactive),> 100 µM (inactive),> 100 µM (inactive),> 100 µM (inactive),53.6 µM (inactive),> 100 µM (inactive),> 100 µM (inactive),–,39.8 µM (inactive)
CNc1nc2c(C)ccc3nc(N(C)C)nc-3c2n1C,> 10 µM (inactive),–,> 10 µM (inactive),> 10 µM (inactive),> 10 µM (inactive),> 10 µM (inactive),> 10 µM (inactive),> 10 µM (inactive),> 10 µM (inactive),> 10 µM (inactive),> 10 µM (inactive),> 10 µM (inactive),> 10 µM (inactive),> 10 µM (inactive),> 10 µM (inactive),7.96 µM (inactive),> 10 µM (inactive),> 10 µM (inactive),> 10 µM (inactive)
O=C1O[C@H]2[C@@H]3OC(=O)c4cc(O)c(O)c(O)c4-c4c(cc(O)c(O)c4O)C(=O)OC[C@H]2O[C@@H](OC(=O)c2cc(O)c(O)c(O)c2)[C@@H]3OC(=O)c2cc(O)c(O)c3c2[C@@H]2C1=CC(=O)C(O)(O)C2(O)O3 (stereo partly specified),25.9 µM (inactive),20.7 µM (inactive),38.8 µM (inactive),27.7 µM (inactive),22.1 µM (inactive),19.7 µM (inactive),16.7 µM (inactive),16 µM (inactive),33 µM (inactive),28.1 µM (inactive),35.6 µM (inactive),39.7 µM (inactive),38.3 µM (inactive),36.5 µM (inactive),11 µM (inactive),16.9 µM (inactive),15.6 µM (inactive),21.7 µM (inactive),–
N#Cc1nc2ccccc2nc1N1CCN(c2ccc([N+](=O)[O-])cc2)CC1,> 100 µM (inactive),> 100 µM (inactive),> 100 µM (inactive),> 100 µM (inactive),> 100 µM (inactive),> 100 µM (inactive),> 100 µM (inactive),> 100 µM (inactive),> 100 µM (inactive),> 100 µM (inactive),–,> 100 µM (inactive),> 100 µM (inactive),> 100 µM (inactive),> 100 µM (inactive),> 100 µM (inactive),> 100 µM (inactive),> 100 µM (inactive),–
CC(C)=CCc1c2c(c3occ(-c4ccc(O)c(O)c4)c(=O)c3c1O)C=CC(C)(C)O2 [POMIFERIN],2.55 µM (inactive),–,1.89 µM (inactive),2.07 µM (inactive),1.72 µM (inactive),1.68 µM (inactive),1.75 µM (inactive),1.7 µM (inactive),1.64 µM (inactive),0.188 µM (active),1.66 µM (inactive),1.61 µM (inactive),1.67 µM (inactive),2.39 µM (inactive),6.71 µM (inactive),1.58 µM (inactive),1.48 µM (inactive),1.54 µM (inactive),1.91 µM (inactive)
